Measurements from patent publication US8378070B2, “Peptides for the regulation of neurotransmitter sequestration and release” (Ramot at Tel-Aviv University Ltd., priority 2007, dated 2013).

What was measured:
DJ-1 mRNA = assay: Real time quantitative PCR of DJ-1 mRNA; type: cell-based, human
Description: Cellular transfection and treatment: SH-SY5Y human neuroblastoma cells, obtained from the ATCC (Rockville, USA), were stably transfected with pIRES2-acGFP1 plasmid (BD biosciences, Clontech) containing wild type DJ-1. […] As controls, naïve neuroblastoma cells were used as well as cells stably transfected with the same vectors. Transfections were performed using the lipofectamine 2000 reagent (Invitrogen). Stable transfections were achieved by geneticin treatment and were verified by measuring DJ-1 mRNA and protein levels using real-time PCR and Western blotting. […] RNA isolation and Real time quantitative PCR: Total RNA was isolated from cultured neuroblastoma cells using a commercial reagent TriReagentTM (Sigma). The amount and quality of RNA was determined spectrophotometrically using the ND-1000 spectrophotometer (NanoDrop). First-strand cDNA synthesis was carried out from […] of the total RNA using random primer (Invitrogen) and RT-superscript II (Invitrogen) reverse transcriptase. Real-time quantitative reverse transcription polymerase chain reaction (PCR) of the desired genes was performed in an ABI Prism 7700 sequence detection system (Applied biosystems) using Sybr green PCR master mix (Applied biosystems) and the following primers: GAPDH (used as 'housekeeping' gene) sense: […] NO: 7), GAPDH antisense: […] NO: 8); DJ-1 sense: […] ID NO: 9) DJ-1 antisense: […] ID NO:10) VMAT2 sense: […] ID NO: 11) VMAT2 antisense: […] NO: 12). Real time quantitative PCR (qPCR) was performed using AbsoluteTM QPCR SYBR® Green ROX Mix, in triplicates. Quantitative calculations of the gene of interest versus GAPDH were done using the ddCT method.

DJ-1 protein = assay: Western blotting of DJ-1 protein in neuroblastoma cells; type: cell-based, human
Description: Cellular transfection and treatment: SH-SY5Y human neuroblastoma cells, obtained from the ATCC (Rockville, USA), were stably transfected with pIRES2-acGFP1 plasmid (BD biosciences, Clontech) containing wild type DJ-1. […] As controls, naïve neuroblastoma cells were used as well as cells stably transfected with the same vectors. Transfections were performed using the lipofectamine 2000 reagent (Invitrogen). Stable transfections were achieved by geneticin treatment and were verified by measuring DJ-1 mRNA and protein levels using real-time PCR and Western blotting. […] 8, 1987-1995 (2006)].

VMAT2 = molecular target: T1, VMAT2 (Homo sapiens, UniProt Q05940); assay: KCl-induced [3H]dopamine release; type: cell-based
T1 construct: endogenous in cells; host or cells: SH-SY5Y human neuroblastoma cells (naive, stably transfected with wild type DJ-1, or with siRNA for DJ-1)
T1 sequence (Q05940 whole entry): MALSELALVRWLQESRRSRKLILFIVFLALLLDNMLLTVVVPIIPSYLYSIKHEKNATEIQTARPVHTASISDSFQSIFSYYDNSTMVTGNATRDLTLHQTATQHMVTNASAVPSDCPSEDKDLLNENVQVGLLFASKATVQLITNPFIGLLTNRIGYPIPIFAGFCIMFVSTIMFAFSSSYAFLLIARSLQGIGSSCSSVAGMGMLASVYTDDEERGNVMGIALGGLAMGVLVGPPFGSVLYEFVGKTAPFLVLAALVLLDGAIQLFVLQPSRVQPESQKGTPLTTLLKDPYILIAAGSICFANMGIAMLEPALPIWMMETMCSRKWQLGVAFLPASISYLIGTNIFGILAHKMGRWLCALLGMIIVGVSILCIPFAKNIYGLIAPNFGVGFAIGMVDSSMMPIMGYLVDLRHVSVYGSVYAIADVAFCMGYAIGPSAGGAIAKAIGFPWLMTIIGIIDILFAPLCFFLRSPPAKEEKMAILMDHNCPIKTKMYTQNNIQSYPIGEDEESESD
Description: KCl-induced dopamine release: Cells were plated on poly-D-lysin-coated 24-well plates. Cells were rinsed with assay buffer (containing Tris 4 mM, HEPES 6.25 mM, NaCl 120 mM, KCl 5 mM, CaCl2 1.2 mM, MgSO4 1.2 mM, D-glucose 5.6 mM and ascorbic acid 0.5 mM) and were then incubated with 0.5 uCi/ml [3H]Dopamine (Amersham Biosciences) for 20 minutes at 37° C. To measure stimulation-induced [3H]Dopamine release, [3H]Dopamine-loaded cells were rinsed extensively with ice cold buffer, and were treated with 60 mM KCl for 20 minutes at 37° C. and extracellular [3H]Dopamine was measured. Inhibition of VMAT2 was done using dihydrotetrabenazine (0-1 mM). All samples were analyzed with Packard liquid scintillation counter. Experiments were conducted in triplicates and repeated three times.

[1] = test system: SH-SY5Y human neuroblastoma cells; assay: Intracellular reactive oxygen species (DCF assay); type: cell-based
Description: (§1) Cellular transfection and treatment: SH-SY5Y human neuroblastoma cells, obtained from the ATCC (Rockville, USA), were stably transfected with pIRES2-acGFP1 plasmid (BD biosciences, Clontech) containing wild type DJ-1. Decreased expression of DJ-1 was achieved by stable transfection with pSilencer2.1-U6 plasmid (Ambion) containing siRNA for DJ-1. As controls, naïve neuroblastoma cells were used as well as cells stably transfected with the same vectors. Transfections were performed using the lipofectamine 2000 reagent (Invitrogen). Stable transfections were achieved by geneticin treatment and were verified by measuring DJ-1 mRNA and protein levels using real-time PCR and Western blotting.
Measurement of intracellular reactive oxygen species (ROS): The generation of ROS, after exposure to increasing dopamine concentrations, was measured using H2DCFDA (Sigma), which is incorporated into the cells and cleaved into fluorescent DCF in the presence of ROS. 10 μM H2DCFDA was added to the cell suspension, and the cells were incubated in the dark at 37° C. for 10 minutes. DCF fluorescence was measured by FLUOstar spectrofluorometer microplate reader at 520 nm. The generation of ROS was quantitatively assayed by the increase in DCF fluorescence and expressed as percentage of control. Each experiment was repeated at least 3 times in triplicates.

ERK 1,2 = test system: ERK 1,2
Description: Cells were treated with dopamine (0-500 uM; Sigma. Israel), N-acetylcysteine (NAC 5 mM; Sigma), and PD-98059 (30 uM; Calbiochem, Rosh Haayin, Israel).
Protein extraction and Western blotting: Protein extraction and Western blotting were done as previously described [Lev, N., et al Antioxid. redox signal. 8, 1987-1995 (2006)]. The membranes were probed with rabbit anti-DJ 1 antibody (1:1000; Chemicon Laboratories), mouse anti-VMAT2 (1:100; Chemicon Laboratories), and rabbit anti emerin (1:5000; Santa Cruz), followed by horseradish peroxidase conjugated secondary antibody (1:10000; Sigma) and developed with the Super Signal West Pico Chemiluminescent substrate (Pierce Biotechnology). Densitometry of the specific protein bands was preformed by VersaDoc® imaging system and Quantity One® software (BioRad).
Immunocytochemistry: Cells were fixed with 4% paraformaldehyde and permeabilized with 0.5% Triton X-100 and were then incubated in a blocking solution followed by overnight incubation with rabbit anti-VMAT2 (1:100; Chemicon Laboratories), at 4° C. followed by incubation with alexa-568 conjugated goat anti rabbit antibodies (1:1000; Molecular probes). Nuclei were counterstained by 4′,6-Diamidino-2-phenylindole dihydrochloride (DAPI, Sigma).

VMAT2 mRNA = assay: Real time quantitative PCR of VMAT2 mRNA; type: cell-based, human
Description: Cellular transfection and treatment: SH-SY5Y human neuroblastoma cells, obtained from the ATCC (Rockville, USA), were stably transfected with pIRES2-acGFP1 plasmid (BD biosciences, Clontech) containing wild type DJ-1. […] As controls, naïve neuroblastoma cells were used as well as cells stably transfected with the same vectors. Transfections were performed using the lipofectamine 2000 reagent (Invitrogen). Stable transfections were achieved by geneticin treatment and were verified by measuring DJ-1 mRNA and protein levels using real-time PCR and Western blotting. […] RNA isolation and Real time quantitative PCR: Total RNA was isolated from cultured neuroblastoma cells using a commercial reagent TriReagentTM (Sigma). The amount and quality of RNA was determined spectrophotometrically using the ND-1000 spectrophotometer (NanoDrop). […] Real-time quantitative reverse transcription polymerase chain reaction (PCR) of the desired genes was performed in an ABI Prism 7700 sequence detection system (Applied biosystems) using Sybr green PCR master mix (Applied biosystems) and the following primers: GAPDH (used as 'housekeeping' gene) sense: […] […] Real time quantitative PCR (qPCR) was performed using AbsoluteTM QPCR SYBR® Green ROX Mix, in triplicates. Quantitative calculations of the gene of interest versus GAPDH were done using the ddCT method.

[2] = test system: SH-SY5Y human neuroblastoma cells; assay: MTT cell viability assay; type: cell-based
Description: as §1
Cell viability: Cell viability was determined by the MTT (3-(4,5-dimethylthiazole-2-yl)-2,5-diphenyltetrazolium bromide, Sigma) reduction assay. Viability after exposure to increasing dopamine levels was analyzed by adding MIT solution to each well followed by incubation at 37° C. for 3 hours. Absorbance was determined at 564 nm in a microplate reader. Cell viability was evaluated in triplicate for each treatment. All experiments were repeated at least 3 times.

VMAT2 promotor = conditions: after exposure to 50 μM dopamine
Description: Chromatin immunoprecipitation: ChIP assays using cultured neuroblastoma cells were performed following Upstate instructions. After protein-DNA cross-linking by paraformaldehyde, cells were harvested and the pellets were resuspended in lysis-buffer and sonicated on ice (5 sets of 15-s pulse at 40% maximal power). After pre-clearing with Protein G/A-agarose, aliquots were incubated with DJ-1 antibodies or non-specific antibodies (as control) overnight at 4° C. with rotation. Immunopercipitated DNA was used as templates for the following primers, designed for the human VMAT promotor: sense: [sequence]

striatum = assay: In vivo 6-hydroxydopamine hemiparkinsonian mouse model, striatal Western blotting; conditions: mice
Description: In vivo 6-hydroxydopamine hemiparkinsonian mouse model: Eight-week-old male C57BL/6 mice (Harlan, Israel; 22-28 g) were used for 6-hydroxydopamine hemiparkinsonian mouse model experiments. All animals were housed in standard conditions, in a constant temperature (22±1° C.), relative humidity (30%), 12-h light: 12-h dark cycle, with free access to food and water. Surgical procedures were performed under the supervision of the Animal Care Committee at the Rabin Medical Center and at Tel Aviv University, Tel Aviv, Israel. Mice received a unilateral, right intrastriatal injection of […] 6-hydroxydopamine hydrobromide (Sigma, Israel) using a stereotaxic surgical procedure. Injections were targeted to the central striatum using the following coordinates: 0.5 mm anterior to bregma, 2.0 mm lateral to bregma, and 2.5 mm deep to the skull surface. Treatments were administered in a volume of 2.0 μL at a rate of 0.5 μL/min. 24 hours after 6-hydroxydopamine lesioning, striatal tissue was collected from both the injected and intact sides for DJ-1, VMAT2 and TH analysis. For analysis of acute 6-hydroxydopamine effects on phosphokinases striatal tissue was excised after 30 and 45 minutes of 6-hydroxydopamine injection.

[3] = test system: tyrosine hydroxylase (TH); assay: Tyrosine hydroxylase mRNA (real time PCR) and ChIP of TH promotor; type: cell-based, human; conditions: DJ-1 overexpressing cells, GAPDH reference
Description: RNA isolation and Real time quantitative PCR: Total RNA was isolated from cultured neuroblastoma cells using a commercial reagent TriReagent™ (Sigma). The amount and quality of RNA was determined spectrophotometrically using the ND-1000 spectrophotometer (NanoDrop). First-strand cDNA synthesis was carried out from […] of the total RNA using random primer (Invitrogen) and RT-superscript II (Invitrogen) reverse transcriptase. Real-time quantitative reverse transcription polymerase chain reaction (PCR) of the desired genes was performed in an ABI Prism 7700 sequence detection system (Applied biosystems) using Sybr green PCR master mix (Applied biosystems) and the following primers: GAPDH (used as ‘housekeeping’ gene) sense: CGACAGTCAGCCGCATCTT (SEQ ID NO: 7), GAPDH antisense: […] (SEQ ID NO: 8); DJ-1 sense: […], (SEQ ID NO: 9) DJ-1 antisense: […], (SEQ ID NO:10) VMAT2 sense: […], (SEQ ID NO: 11) VMAT2 antisense: […] (SEQ ID NO: 12). Real time quantitative PCR (qPCR) was performed using Absolute™ QPCR SYBR® Green ROX Mix, in triplicates. Quantitative calculations of the gene of interest versus GAPDH were done using the ddCT method.

[4] = PD98059 30 uM, inhibition of ERK1,2 phosphorylation

## CC(=O)N[C@@H](CS)C(=O)O [NAC, N-acetylcysteine]
DJ-1 mRNA; pre-treatment with NAC 5 mM, naïve neuroblastoma
  Effect on dopamine-induced DJ-1 mRNA upregulation: abolished DJ-1 mRNA upregulation

## COc1cccc(-c2cc(=O)c3ccccc3o2)c1N [PD98059]
DJ-1 mRNA; [4]
  Effect on dopamine-induced DJ-1 mRNA upregulation: inhibited DJ-1 mRNA upregulation
DJ-1 protein; [4]
  Effect on dopamine-induced DJ-1 protein upregulation (Western blot): abolished DJ-1 protein upregulation

## COc1cc2c(cc1OC)[C@H]1C[C@@H](O)[C@H](CC(C)C)CN1CC2 [dihydrotetrabenazine]
VMAT2; dihydrotetrabenazine 0-1 mM, 60 mM KCl 20 minutes
  KCl induced dopamine release: abolished

## NCCc1ccc(O)c(O)c1 [dopamine]
DJ-1 mRNA; 50 μM dopamine, within 1 hour, naïve neuroblastoma cells
  Increase in DJ-1 mRNA: 2.5 fold
DJ-1 protein; naïve neuroblastoma cells
  DJ-1 protein after dopamine exposure (Western blot): Increased DJ-1 protein
[1]; increasing dopamine concentrations, neuroblastoma cells
  Intracellular ROS (DCF assay) after dopamine exposure: increased intracellular ROS
ERK 1,2; naive neuroblastoma, Western blotting and immunocytochemistry
  Time to phosphorylation of ERK 1,2 after dopamine exposure: 20 to 60 min
ERK 1,2; naïve neuroblastoma cells
  Phosphorylation of ERK 1 and 2 after dopamine exposure: rapid phosphorylation
VMAT2 mRNA; 50 μM dopamine, after 7 hours, naïve neuroblastoma cells
  VMAT2 mRNA elevation of basal level: 60 fold
[2]; dopamine 0-500 uM, 24 hours, neuroblastoma cells
  Cell viability (MTT) after dopamine exposure: dose dependent cell death
VMAT2 promotor
  VMAT2 promotor precipitated by anti-DJ-1 antibodies (ChIP): higher amounts of VMAT2 promotor were precipitated

## Br.NCCc1cc(O)c(O)cc1O [6-hydroxydopamine, 6-hydroxydopamine hydrobromide]
striatum; acute exposure, intrastriatal injection, 30 and 45 minutes
  ERK1,2 phosphorylation in striatum: increased phosphorylation of ERK1, 2
striatum; unilateral intrastriatal injection, 24 hours
  DJ-1 and VMAT-2 protein expression in lesioned vs unlesioned striatum: increased expression of DJ-1 and of VMAT-2 proteins

B1: DJ-1: wild type DJ-1 overexpressed by stable transfection with pIRES2-acGFP1 plasmid; GenBank AB073864 (protein, listed as Homo sapiens)
chain: MASKRALVILAKGAEEMETVIPVDVMRRAGIKVTVAGLAGKDPVQCSRDVVICPDASLEDAKKEGPYDVVVLPGGNLGAQNLSESAAVKEILKEQENRKGLIAAICAGPTALLAHEIGCGSKVTTHPLAKDKMMNGGHYTYSENRVEKDGLILTSRGPGTSFEFALAIVEALNGKEVAAQVKAPLVLKD
DJ-1 mRNA; stable transfection with wild type DJ-1
  DJ-1 mRNA and protein levels in overexpressing cells: over 3 fold
[3]
  TH mRNA levels (real time PCR): upregulation of TH mRNA
VMAT2; transfected SH-SY5Y cells
  KCl-induced dopamine release from synaptic vesicles compared to naïve neuroblastoma cells: released more dopamine
[1]; transfected SH-SY5Y cells vs naïve neuroblastoma
  Dopamine-induced intracellular ROS (DCF assay): decreased intracellular ROS
VMAT2 mRNA; stably transfected SH-SY5Y cells
  VMAT2 expression level compared to control (mRNA): over 500 fold
[2]; DJ-1 overexpressing neuroblastoma cells
  Protection against rotenone and 6-hydroxydopamine: protects against dopaminergic toxins
[2]; dopamine 0-500 uM, 24 hours, transfected SH-SY5Y cells
  Vulnerability to dopamine toxicity (MTT viability): conferred resistance to dopamine
